{"source": "patent US10358469B2", "about": "“Methods and pharmaceutical compositions for the treatment of cancer” (INSERM (INSTITUT NATIONAL DE LA SANTÉ ET DE LA RECHERCHE …, priority 2014, dated 2019)", "key": {"[1]": {"system": "D3H2LN cells", "test": "Matrigel invasion assay, D3H2LN cells", "format": "cell-based", "settings": "2 μM, toward 10% FBS, 24 h, FIG. 7B", "procedure": "FIG. 7: Antp-AAC-11-LZ (363-399) peptide inhibits cell migration and invasion. (A) D3H2LN cells were added to the upper well of modified Boyden chamber (transwell) plates with a vehicle or with either 2 μM of the Antp-AAC-11-LZ (363-399) peptide or the Antp-only peptide and subjected to a transwell migration assay as described under Materials and methods. The cells were allowed to migrate toward 10% FBS for 12 […]h. Triplicate wells were used for each of three independent experiments. The results are expressed relative to the migration of the untreated cells (=100%). Column: Mean of three experiments. Bar: s.e. P-value was determined by Student's t-test (*P<0.01). (B) D3H2LN cells were seeded in a Matrigel-coated Boyden chamber with a vehicle or with either 2 μM of the Antp-AAC-11-LZ (363-399) peptide or the Antp-only peptide and subjected to a transwell migration assay as described under Materials and methods. The cells were allowed to migrate toward 10% FBS for 24 […]h. Triplicate wells were used for each of three independent experiments. The results are expressed relative to the migration of the untreated cells (=100%). Column: Mean of three experiments. Bar: s.e. P-value was determined by Student's t-test (*P<0.01) […]"}, "[2]": {"test": "Toxicity of peptide injection in nude mice", "settings": "i.p. twice per week for 4 weeks", "experimental": "Nude mice were injected intraperitoneally twice a week for 4 weeks with normal saline solution or the indicated doses of Antp-AAC-11-LZ (363-399) peptide (n=3-4 mice per group) and were monitored daily for body weight (mean±s.e.m).\nNude mice were injected intraperitoneally twice a week for 4 weeks with normal saline solution or the indicated doses of Antp-AAC-11-LZ (377-399) peptide (n=3-4 mice per group) and were monitored daily for body weight (mean±s.e.m).\nWe first evaluated the toxicity of the Antp-AAC-11-LZ (363-399) peptide in nude mice that were injected intraperitoneally twice per week for 4 weeks with the Antp-AAC-11-LZ (363-399) peptide or normal saline solution (dose range: 0.8-4.8 mg peptide/kg body weight; n=3-4 mice per group).\nWe first evaluated the toxicity of the Antp-AAC-11-LZ (377-399) peptide in nude mice that were injected intraperitoneally twice per week for 4 weeks with the Antp-AAC-11-LZ (377-399) peptide or normal saline solution (dose range: 1-6 mg peptide/kg body weight; n=3-4 mice per group)."}, "[3]": {"system": "SeAx cells", "test": "Propidium iodide (PI) uptake, flow cytometry, SeAx cells", "format": "cell-based", "settings": "4 μM", "procedure": "(A) SeAx or HaCat cells cultured in the absence of 10% FBS were left untreated or treated with 4 μM or 10 μM, respectively, of the Antp-AAC-11-LZ (363-399) peptide for the indicated durations. Cells were then analyzed by flow cytometry for PI staining. The results represent the mean number of PI-positive cells±S.D. from at least three independent experiments. (B) A549 and HaCat cells were plated at a densities of 4.5×10^3 in 96 well plates (100 μL total volume per well) and allowed to attach overnight in a 37° C. incubator (5% CO2). […] Lactate dehydrogenase (LDH) activity released in the culture medium was then assessed and data expressed as a percentage of the maximal level (Max) of LDH activity determined after total cell lysis±S.D. from at least three independent experiments.\n(A) SeAx cultured in the absence of 10% FBS were left untreated or treated with 4 μM of the indicated Antp-AAC-11-LZ peptides for various times. Cells were then analyzed by flow cytometry for PI staining. […] Lactate dehydrogenase (LDH) activity released in the culture medium was then assessed and data expressed as a percentage of the maximal level (Max) of LDH activity determined after total cell lysis±S.D.\nCell death was evaluated upon staining with propidium iodide and flow cytometry analysis. […]"}}}
{"substance": "Ac-RQIKIWFKKQNRRMKWKKAKLNAEKLKDFKIRLQYFARGLQVYIRQLRLALQGKT-NH2 [Antp-AAC-11-LZ (363-399)]", "values": [{"measurement": "cell invasion", "setting": "[1]", "value": "prevented invasion"}, {"measurement": "mortality", "setting": "[2]; 0.8-4.8 mg peptide/kg body weight", "value": "No mice died"}, {"measurement": "body weight difference between groups", "setting": "[2]; 0.8-4.8 mg peptide/kg body weight, FIG. 8A", "value": "no significant difference"}, {"measurement": "toxicity to kidney, lungs, heart, liver, pancreas and spleen", "setting": "[2]; 0.8-4.8 mg peptide/kg, end of experiment", "value": "no obvious toxicity"}, {"measurement": "PI positive cells", "setting": "[3]; 5 minutes, absence of 10% FBS", "value": 90, "unit": "%"}, {"measurement": "PI positive cells, course after 5 minutes", "setting": "[3]; up to 60 minutes", "value": "remained unchanged"}]}
